The values below come from ChEMBL document CHEMBL5634150, “Design, synthesis and biological evaluation of novel dihydroquinolin-4(1H)-one derivatives as novel tubulin polymerization inhibitors” (Eur J Med Chem, 2023).

What all share (assay type): functional
The test system of test [1] is A549. Kind of test: Antiproliferative activity against human A549 cells assessed as inhibition of cell growth at 0.01 uM measured after 72 hrs by MTT assay relative to control. A general note: Tetrazolium dyes change colour on reduction, which living cells bring about.
For test [2], the system named is A549. The experiment in a line: Antiproliferative activity against human A549 cells assessed as inhibition of cell growth at 0.1 uM measured after 72 hrs by MTT assay relative to control.
The subject of test [3] is A549. The experiment in a line: Antiproliferative activity against human A549 cells assessed as inhibition of cell growth at 1 uM measured after 72 hrs by MTT assay relative to control.

As to `COc1cc(N2CCC(=O)c3c2cc(OC)c(OC)c3OC)cc(OC)c1OC`, the inhibition at 0.01 µM in test [1] came to 12.3%. Further, in test [2], the inhibition at 0.1 µM amounted to 19.4%. In addition, in test [3], the inhibition at 1 µM was determined as 28.4%.
For `COc1cc2c(c(OC)c1OC)C(=O)CCN2c1ccccc1`, in that order: 6.13%, 12.3% and 31.1%.
Take `COc1ccc(N2CCC(=O)c3ccccc32)cc1O`: in test [1], the inhibition at 0.01 µM amounted to 38.2%. The inhibition at 0.1 µM in test [2] came out at 54.7%. In test [3], the inhibition at 1 µM is 58.5%.
For `COc1cc2c(c(OC)c1OC)C(=O)CCN2Cc1ccc(C(F)(F)F)cc1`, in that order: 6.29%, 22.1% and 28.6%.
As for `COc1ccc(N2CCC(=O)c3c2cc(OC)c(OC)c3OC)cc1OC`, the inhibition at 0.01 µM in test [1] is 11%. The inhibition at 0.1 µM in test [2] was 17.6%. The inhibition at 1 µM in test [3] amounted to 41%.
On to `COc1cc2c(c(OC)c1OC)C(=O)CCN2Cc1ccc(F)cc1`, for which the inhibition at 0.01 µM in test [1] was found to be 12%. In test [2], the inhibition at 0.1 µM was found to be 16.3%. In addition, the inhibition at 1 µM in test [3] was determined as 32.1%.
With `COc1cc2c(c(OC)c1OC)C(=O)CCN2c1ccc2c(c1)OCO2`, the inhibition at 0.01 µM in test [1] worked out at 22.6%. For the same compound, the inhibition at 0.1 µM in test [2] was 44.8%. Further, the inhibition at 1 µM in test [3] was determined as 65.3%.
For `COc1cc2c(c(OC)c1OC)C(=O)CCN2c1ccc(O)c(O)c1`, in that order: 21.9%, 22.9% and 35%.
Take `COc1cc2c(c(OC)c1OC)C(=O)CCN2c1cccc2[nH]ccc12`: the inhibition at 0.01 µM in test [1] was 11.6%. For the same compound, the inhibition at 0.1 µM in test [2] worked out at 31.2%. In test [3], the inhibition at 1 µM amounted to 35.9%.
Regarding `COc1cc2c(c(OC)c1OC)C(=O)CCN2c1cccc(O)c1`, the inhibition at 0.01 µM in test [1] came to 15.8%. Moreover, in test [2], the inhibition at 0.1 µM was determined as 36.8%. The inhibition at 1 µM in test [3] was 50.1%.
Consider `COc1cc2c(c(OC)c1OC)C(=O)CCN2c1ccc(O)cc1`, for which the inhibition at 0.01 µM in test [1] was 9.57%. The inhibition at 0.1 µM in test [2] was determined as 15.1%. Besides, in test [3], the inhibition at 1 µM was 29.9%.
Consider `COc1cc2c(c(OC)c1OC)C(=O)CCN2c1c[nH]c2ccccc12`, for which the inhibition at 0.01 µM in test [1] turned out to be 16.6%. Besides, in test [2], the inhibition at 0.1 µM was 31.4%. In addition, the inhibition at 1 µM in test [3] stood at 51.7%.
For `COc1ccc(N2CCC(=O)c3c2cc(OC)c(OC)c3OC)cn1`, in that order: 18.8%, 30.4% and 45.3%.
For `COc1cc2c(c(OC)c1OC)C(=O)CCN2c1ccc(C)cc1`, in that order: 21%, 41.7% and 64.1%.
Regarding `COc1ccc2c(c1)C(=O)CCN2c1ccc(OC)c(O)c1`, the inhibition at 0.01 µM in test [1] is 32.5%. For the same compound, in test [2], the inhibition at 0.1 µM came to 40.2%. In addition, in test [3], the inhibition at 1 µM came out at 66.6%.
As to `COc1cc2c(c(OC)c1OC)C(=O)CCN2Cc1ccccc1`, the inhibition at 0.01 µM in test [1] amounted to 8.31%. Moreover, the inhibition at 0.1 µM in test [2] turned out to be 6.72%. In addition, the inhibition at 1 µM in test [3] came to 23.2%.
For the compound `COc1cc2c(cc1O)N(c1cc(OC)c(OC)c(OC)c1)CCC2=O`, the inhibition at 0.01 µM in test [1] worked out at 33.5%. Moreover, in test [2], the inhibition at 0.1 µM was determined as 45.6%. The inhibition at 1 µM in test [3] is 54.4%.
Turning to `COc1ccc(CN2CCC(=O)c3c2cc(OC)c(OC)c3OC)cc1O`, the inhibition at 0.01 µM in test [1] was found to be 13%. The inhibition at 0.1 µM in test [2] stood at 13%. For the same compound, in test [3], the inhibition at 1 µM turned out to be 17.7%.
With `COc1ccc(N2CCC(=O)c3cc4c(cc32)OCO4)cc1O`, the inhibition at 0.01 µM in test [1] was found to be 12.7%. The inhibition at 0.1 µM in test [2] is 14.3%. The inhibition at 1 µM in test [3] stood at 28%.
The corresponding values for `COc1cc(N2CCC(=O)c3cc4c(cc32)OCO4)cc(OC)c1OC` are 19.9%, 29.2% and 46.6%.

The term inhibition denotes the share of the control response that was lost under treatment.
